US20230257354A1, “NOVEL HETEROCYCLIC COMPOUNDS” (Hoffmann-La Roche Inc., priority 2020, published 2023)
Where a name gives a salt, the structure may show the parent alone.

Tested on: Acinetobacter baumannii ATCC17978
Assay: Antimicrobial susceptibility testing, 90% growth inhibitory concentration (IC90) determination, ATCC17978
Assay type: cell-based
Conditions: Iso-Sensitest broth, OD 600 nm over 16 h, 35±2° C., read-out: ATCC 17978 IC90
Experimental: Antimicrobial Susceptibility Testing: 90% Growth Inhibitory Concentration (IC90) Determination The in vitro antimicrobial activity of the compounds was determined according to the following procedure: The assay used a 10-points Iso-Sensitest broth medium to measure quantitatively the in vitro activity of the compounds against Acinetobacter baumannii ATCC17978 or ATCC17961. Stock compounds in DMSO were serially twofold diluted (e.g. range from 50 to 0.097 μM final concentration) in 384 wells microtiter plates and inoculated with 49 μl the bacterial suspension in Iso-Sensitest medium to have a final cell concentration of ˜5×10^(5) CFU/ml in a final volume/well of 50 ul/well. Microtiter plates were incubated at 35±2° C. Bacterial cell growth was determined with the measurement of optical density at X=600 nm each 20 minutes over a time course of 16 h. Growth inhibition was calculated during the logarithmic growth of the bacterial cells with determination of the concentration inhibiting 50% (IC50) and 90% (IC90) of the growth. Table 1 provides the 90% growth inhibitory concentrations (IC90) in micromoles per liter of the compounds of present invention obtained against the strain Acinetobacter baumannii ATCC17978.

IC90 | Compound
230 nM | Cn1c(-c2ccc(OC(F)F)c(F)c2F)cnc1C(=O)Nc1ccc(C(=O)NCCCNC(=O)CCN)c(Cl)c1 [Example B11, N-[4-[3-(3-aminopropanoylamino)propylcarbamoyl]-3-chloro-phenyl]-5-[4-(difluoromethoxy)-2,3-difluoro-phenyl]-1-methyl-imidazole-2-carboxamide;2,2,2-trifluoroacetic acid]
1500 nM | CCc1cc(NC(=O)c2ncc(-c3ccc(OC)cc3Cl)n2C)ccc1C(=O)NCCOCCN [Example A16, N-[4-[2-(2-aminoethoxy)ethylcarbamoyl]-3-ethyl-phenyl]-5-(2-chloro-4-methoxy-phenyl)-1-methyl-imidazole-2-carboxamide;hydrochloride]
670 nM | COc1ccc(-c2cnc(C(=O)Nc3ccc(C(=O)NCCNC(=O)CN(C)C)c(Cl)c3)n2C)c(F)c1F [Example A24, N-[3-chloro-4-[2-[[2-(dimethylamino)acetyl]amino]ethylcarbamoyl]phenyl]-5-(2,3-difluoro-4-methoxy-phenyl)-1-methyl-imidazole-2-carboxamide;2,2,2-trifluoroacetic acid]
650 nM | Cc1cc(NC(=O)c2ncc(-c3ccc(OCC#N)c(F)c3F)n2C)ccc1C(=O)NCCNC(=O)N[C@@H]1CNC[C@H]1O [Example B30, 5-[4-(cyanomethoxy)-2,3-difluoro-phenyl]-N-[4-[2-[[(3R,4R)-4-hydroxypyrrolidin-3-yl]carbamoylamino]ethylcarbamoyl]-3-methyl-phenyl]-1-methyl-imidazole-2-carboxamide;formic acid]
120 nM | COc1ccc(-c2cnc(C(=O)Nc3ccc(C(=O)N[C@H]4C[C@@H](NC(=O)C5(O)CCNCC5)C4)c(Cl)c3)n2C)c(F)c1F [Example B40, N-[3-[[2-chloro-4-[[5-(2,3-difluoro-4-methoxy-phenyl)-1-methyl-imidazole-2-carbonyl]amino]benzoyl]amino]cyclobutyl]-4-hydroxy-piperidine-4-carboxamide;formic acid]
150 nM | COc1ccc(-c2cnc(C(=O)Nc3ccc(C(=O)NCCCCCCN)c(Cl)c3)n2C)c(F)c1F [Example A6, N-[4-(6-aminohexylcarbamoyl)-3-chloro-phenyl]-5-(2,3-difluoro-4-methoxy-phenyl)-1-methyl-imidazole-2-carboxamide]
360 nM | Cn1c(-c2ccc(OCC#N)c(F)c2F)cnc1C(=O)Nc1ccc(C(=O)NCCNC(=O)C2CCNCC2)c(Cl)c1 [Example B15, N-[2-[[2-chloro-4-[[5-[4-(cyanomethoxy)-2,3-difluoro-phenyl]-1-methyl-imidazole-2-carbonyl]amino]benzoyl]amino]ethyl]piperidine-4-carboxamide;2,2,2-trifluoroacetic acid]
610 nM | COc1ccc(-c2cnc(C(=O)Nc3ccc(C(=O)NCCNC(=O)N[C@H]4CNC[C@@H]4O)c(C)c3)n2C)c(F)c1F [Example B29, 5-(2,3-difluoro-4-methoxy-phenyl)-N-[4-[2-[[(3S,4S)-4-hydroxypyrrolidin-3-yl]carbamoylamino]ethylcarbamoyl]-3-methyl-phenyl]-1-methyl-imidazole-2-carboxamide;formic acid]
1700 nM | Cn1c(-c2ccc(OCC#N)c(F)c2F)cnc1C(=O)Nc1ccc(C(=O)NCCNC(=O)[C@@H]2CCNC[C@H]2O)c(Cl)c1 [Example B34, (3S,4R)-N-[2-[[2-chloro-4-[[5-[4-(cyanomethoxy)-2,3-difluoro-phenyl]-1-methyl-imidazole-2-carbonyl]amino]benzoyl]amino]ethyl]-3-hydroxy-piperidine-4-carboxamide;formic acid]
1000 nM | Cc1cc(NC(=O)c2ncc(-c3ccc(OCC#N)c(F)c3F)n2C)ccc1C(=O)NCCNC(=O)[C@H]1C[C@@](C)(O)CN1 [Example B24, 5-[4-(cyanomethoxy)-2,3-difluoro-phenyl]-N-[4-[2-[[(2R,4R)-4-hydroxy-4-methyl-pyrrolidine-2-carbonyl]amino]ethylcarbamoyl]-3-methyl-phenyl]-1-methyl-imidazole-2-carboxamide;formic acid]
960 nM | CCc1cc(NC(=O)c2ncc(-c3ccc(OCC#N)c(F)c3F)n2C)ccc1C(=O)NCCOCCN [Example A20, N-[4-[2-(2-aminoethoxy)ethylcarbamoyl]-3-ethyl-phenyl]-5-[4-(cyanomethoxy)-2,3-difluoro-phenyl]-1-methyl-imidazole-2-carboxamide;hydrochloride]
55 nM | COc1ccc(-c2cnc(C(=O)Nc3ccc(C(=O)N[C@H]4C[C@@H](NC(=O)C5C[C@@H](O)CN5)C4)c(Cl)c3)n2C)c(F)c1F (stereo in doubt) [Example B38, N-[3-chloro-4-[[3-[[(4R)-4-hydroxypyrrolidine-2-carbonyl]amino]cyclobutyl]carbamoyl]phenyl]-5-(2,3-difluoro-4-methoxy-phenyl)-1-methyl-imidazole-2-carboxamide;formic acid]
590 nM | CCc1cc(NC(=O)c2ncc(-c3ccc(OC)c(F)c3F)n2C)ccc1C(=O)NCCOCCN [Example A13, N-[4-[2-(2-aminoethoxy)ethylcarbamoyl]-3-ethyl-phenyl]-5-(2,3-difluoro-4-methoxy-phenyl)-1-methyl-imidazole-2-carboxamide;formic acid]
1200 nM | Cn1c(-c2ccc(OCC#N)c(F)c2F)cnc1C(=O)Nc1ccc(C(=O)NCCNC(=O)[C@@H]2CCNC[C@@H]2O)c(Cl)c1 [Example B32, (3R,4R)-N-[2-[[2-chloro-4-[[5-[4-(cyanomethoxy)-2,3-difluoro-phenyl]-1-methyl-imidazole-2-carbonyl]amino]benzoyl]amino]ethyl]-3-hydroxy-piperidine-4-carboxamide;formic acid]
210 nM | COc1ccc(-c2cnc(C(=O)Nc3ccc(C(=O)N[C@H]4C[C@@H](NC(=O)C5CC(CN)C5)C4)c(Cl)c3)n2C)c(F)c1F (some centres unmarked) [Example B9, N-[4-[[3-[[3-(aminomethyl)cyclobutanecarbonyl]amino]cyclobutyl]carbamoyl]-3-chloro-phenyl]-5-(2,3-difluoro-4-methoxy-phenyl)-1-methyl-imidazole-2-carboxamide;formic acid]
310 nM | COc1ccc(-c2cnc(C(=O)Nc3ccc(C(=O)NC4CCNC4)c(Cl)c3)n2C)c(F)c1F (centres unmarked) [Example A3, N-[3-chloro-4-(pyrrolidin-3-ylcarbamoyl)phenyl]-5-(2,3-difluoro-4-methoxy-phenyl)-1-methyl-imidazole-2-carboxamide;formic acid]
73 nM | COc1ccc(-c2cnc(C(=O)Nc3ccc(C(=O)N[C@H]4C[C@@H](NC(=O)[C@H]5CCNC[C@H]5O)C4)c(Cl)c3)n2C)c(F)c1F [Example B42, (3S,4S)-N-[3-[[2-chloro-4-[[5-(2,3-difluoro-4-methoxy-phenyl)-1-methyl-imidazole-2-carbonyl]amino]benzoyl]amino]cyclobutyl]-3-hydroxy-piperidine-4-carboxamide;formic acid]
140 nM | Cn1c(-c2ccc(OC(F)F)c(F)c2F)cnc1C(=O)Nc1ccc(C(=O)NCCC2CN(C(=O)CCN)C2)c(Cl)c1 [Example B10, N-[4-[2-[1-(3-aminopropanoyl)azetidin-3-yl]ethylcarbamoyl]-3-chloro-phenyl]-5-[4-(difluoromethoxy)-2,3-difluoro-phenyl]-1-methyl-imidazole-2-carboxamide;2,2,2-trifluoroacetic acid]
98 nM | COc1ccc(-c2cnc(C(=O)Nc3ccc(C(=O)N[C@H]4C[C@@H](C(=O)N[C@H]5C[C@@H](N)C5)C4)c(Cl)c3)n2C)c(F)c1F [Example B21, N-[4-[[3-[(3-aminocyclobutyl)carbamoyl]cyclobutyl]carbamoyl]-3-chloro-phenyl]-5-(2,3-difluoro-4-methoxy-phenyl)-1-methyl-imidazole-2-carboxamide;2,2,2-trifluoroacetic acid]
1300 nM | Cn1c(-c2ccc(OCC#N)c(F)c2F)cnc1C(=O)Nc1ccc(C(=O)NCCNC(=O)[C@H]2CCNC[C@@H]2O)c(Cl)c1 [Example B35, (3R,4S)-N-[2-[[2-chloro-4-[[5-[4-(cyanomethoxy)-2,3-difluoro-phenyl]-1-methyl-imidazole-2-carbonyl]amino]benzoyl]amino]ethyl]-3-hydroxy-piperidine-4-carboxamide;formic acid]
910 nM | Cc1cc(NC(=O)c2ncc(-c3ccc(OCC#N)c(F)c3F)n2C)ccc1C(=O)NCCNC(=O)C1CCNCC1 [Example B13, N-[2-[[4-[[5-[4-(cyanomethoxy)-2,3-difluoro-phenyl]-1-methyl-imidazole-2-carbonyl]amino]-2-methyl-benzoyl]amino]ethyl]piperidine-4-carboxamide;formic acid]
360 nM | Cn1c(-c2ccc(OCC#N)c(F)c2F)cnc1C(=O)Nc1ccc(C(=O)NCCN2CCNCC2)c(Cl)c1 [Example A10, N-[3-chloro-4-(2-piperazin-1-ylethylcarbamoyl)phenyl]-5-[4-(cyanomethoxy)-2,3-difluoro-phenyl]-1-methyl-imidazole-2-carboxamide;2,2,2-trifluoroacetic acid]
84 nM | COc1ccc(-c2cnc(C(=O)Nc3ccc(C(=O)NC4CN(C(=O)CN)C4)c(Cl)c3)n2C)c(F)c1F [Example B17, N-[4-[[1-(2-aminoacetyl)azetidin-3-yl]carbamoyl]-3-chloro-phenyl]-5-(2,3-difluoro-4-methoxy-phenyl)-1-methyl-imidazole-2-carboxamide;formic acid]
